Reference: article PMC3897212 (Journal of pharmacokinetics and pharmacodynamics, 2013)
Read-outs that look alike come from different tables or passages of the source. Marks after values point to notes of the source that are not given here.

Legend:
[1] = Time course tissue distribution / pharmacokinetic study in mice; assay type: in vivo, female FVB mice; conditions: mouse; for AUC(0-t) / half-life: female, FVB, po
[2] = mice; owing to ABCB1- and ABCB2-mediated efflux; cited from earlier work
[3] = Mouse PBPK model of lapatinib
[4] = test system: metastatic breast cancer cells in the brains of mice; conditions: cited from earlier work
[5] = Human PBPK model of lapatinib
[6] = test system: albumin and alpha-1 acid glycoprotein; conditions: cited from earlier work
[7] = Single 100 mg dose plasma pharmacokinetic study in healthy subjects; assay type: in vivo; conditions: human, po
[8] = patients administered lapatinib; cited from earlier work
[9] = test system: brain metastases from HER2-positive breast cancer; conditions: human patients with brain metastases from HER2-positive breast cancer; cited from earlier work
[10] = human plasma, cited from earlier work
CYP3A = conditions: cited from earlier work
[11] = slowly perfused tissue, 30 mg/kg
[12] = slowly perfused tissue, 60 mg/kg
[13] = slowly perfused tissue, 90 mg/kg
[14] = first-order, parameter estimate (CV%) fitted to 60 mg/kg cohort
[15] = parameter estimate (CV%) fitted to 60 mg/kg cohort

SMILES: CS(=O)(=O)CCNCc1ccc(-c2ccc3ncnc(Nc4ccc(OCc5cccc(F)c5)c(Cl)c4)c3c2)o1 [lapatinib, N-{3-chloro-4-[(3-fluorobenzyl)oxy]phenyl}-6-[5-({[2-(methylsulfonyl)ethyl]amino}methyl)-2-furyl]-4-quinazolinamine]
- AUC(0-t) ([1]; brain, 30 mg/kg): 0.441 µM·h
- AUC(0-t) ([1]; brain, 60 mg/kg): 1.31 µM·h
- half-life ([1]; brain, 60 mg/kg): 3.12 h
- AUC(0-t) ([1]; brain, 90 mg/kg): 2.26 µM·h
- half-life ([1]; brain, 90 mg/kg): 1.76 h
- AUC(0-t) ([1]; heart, 30 mg/kg): 7.16 µM·h
- half-life ([1]; heart, 30 mg/kg): 2.59 h
- AUC(0-t) ([1]; heart, 60 mg/kg): 26.5 µM·h
- half-life ([1]; heart, 60 mg/kg): 3.05 h
- AUC(0-t) ([1]; heart, 90 mg/kg): 55.2 µM·h
- half-life ([1]; heart, 90 mg/kg): 2.32 h
- AUC(0-t) ([1]; intestine, 30 mg/kg): 79.9 µM·h
- half-life ([1]; intestine, 30 mg/kg): 2.79 h
- AUC(0-t) ([1]; intestine, 60 mg/kg): 235 µM·h
- half-life ([1]; intestine, 60 mg/kg): 3.05 h
- AUC(0-t) ([1]; intestine, 90 mg/kg): 260 µM·h
- half-life ([1]; intestine, 90 mg/kg): 2.55 h
- AUC(0-t) ([1]; kidney, 30 mg/kg): 50.4 µM·h
- half-life ([1]; kidney, 30 mg/kg): 2.53 h
- AUC(0-t) ([1]; kidney, 60 mg/kg): 138 µM·h
- half-life ([1]; kidney, 60 mg/kg): 3.57 h
- AUC(0-t) ([1]; kidney, 90 mg/kg): 227 µM·h
- half-life ([1]; kidney, 90 mg/kg): 2.51 h
- AUC(0-t) ([1]; liver, 30 mg/kg): 84.9 µM·h
- half-life ([1]; liver, 30 mg/kg): 2.48 h
- half-life ([1]; liver, 60 mg/kg): 2.75 h
- AUC(0-t) ([1]; liver, 90 mg/kg): 261 µM·h
- half-life ([1]; liver, 90 mg/kg): 1.91 h
- AUC(0-t) ([1]; lung, 30 mg/kg): 92.4 µM·h
- half-life ([1]; lung, 30 mg/kg): 2.39 h
- half-life ([1]; lung, 60 mg/kg): 3.04 h
- AUC(0-t) ([1]; lung, 90 mg/kg): 623 µM·h
- half-life ([1]; lung, 90 mg/kg): 1.72 h
- AUC(0-t) ([1]; plasma, 30 mg/kg): 12 µM·h
- half-life ([1]; plasma, 30 mg/kg): 2.73 h
- AUC(0-t) ([1]; plasma, 60 mg/kg): 24.1 µM·h
- half-life ([1]; plasma, 60 mg/kg): 3.42 h
- AUC(0-t) ([1]; plasma, 90 mg/kg): 48.2 µM·h
- half-life ([1]; plasma, 90 mg/kg): 2.36 h
- AUC(0-t) [1, 11]: 2.74 µM·h
- half-life [1, 11]: 3.88 h
- AUC(0-t) [1, 12]: 9.52 µM·h
- half-life [1, 12]: 2.57 h
- AUC(0-t) [1, 13]: 18.9 µM·h
- half-life [1, 13]: 1.55 h
- dose linearity of pharmacokinetics ([1]; all tissues, 30–90 mg/kg dose range, dose-dependent increase in AUC0–16 h and constant CL): linear pharmacokinetics
- central nervous system (CNS) penetration [2]: poor central nervous system (CNS) penetration
- Metabolism rate constant Intestine ([3]; calculated as 2 % of liver metabolism): 2.5 ^e h^−1
- Absorption rate constant Lumen → Intestine [3, 14]: 0.237 (2) h^−1
- Metabolism rate constant Liver [3, 14]: 127 (13) h^−1
- Partition coefficient Brain:plasma [3, 15]: 10 (19) Ratio
- Partition coefficient Intestine:plasma [3, 15]: 531 (31) Ratio
- Partition coefficient Kidney:plasma [3, 15]: 1,064 (18) Ratio
- Partition coefficient Liver:plasma [3, 15]: 12 (20) Ratio
- Partition coefficient Lung:plasma [3, 15]: 1,643 (19) Ratio
- Partition coefficient Slowly perfused:plasma [3, 15]: 65 (20) Ratio
- burden of metastatic breast cancer cells in the brain [4]: reduce the burden of metastatic breast cancer cells in the brains of mice
- Partition coefficient Brain:plasma ([5]; human PBPK model parameter): 10 Ratio
- Partition coefficient Intestine:plasma ([5]; human PBPK model parameter): 531 Ratio
- Partition coefficient Kidney:plasma ([5]; human PBPK model parameter): 1,064 Ratio
- Partition coefficient Liver:plasma ([5]; human PBPK model parameter): 12 Ratio
- Partition coefficient Lung:plasma ([5]; human PBPK model parameter): 1,643 Ratio
- Partition coefficient Slowly perfused:plasma ([5]; human PBPK model parameter): 65 Ratio
- Metabolism rate constant Intestine ([5]; human, calculated as 1.3 % of liver metabolism): 0.975 ^f h^−1
- bound to albumin and alpha-1 acid glycoprotein [6]: > 99%
- Percent unbound ([6]; plasma, value set in PBPK model): 1%
- unbound fraction of drug in the plasma ([6]; value set in PBPK model): 0.01
- AUC(0-t) [7]: 2.7 µM·h
- half-life [7]: 9.5 h
- adverse reactions observed in clinical trials [8]: decreased left ventricular ejection fraction, QT prolongation, hepatotoxicity, diarrhea and interstitial lung disease/pneumonitis
- CNS antitumor activity [9]: modest CNS antitumor activity
- Observed Tmax ([10]; 25 mg multiple dose, healthy, fasted, median (range)): 2.7 (2.5–4.0) ^e h
- Observed Tmax ([10]; 100 mg multiple dose, healthy, fasted, median (range)): 3.0 (2.0–6.0) ^e h
- Observed Tmax ([10]; 175 mg single dose, healthy, fasted, median (range)): 3.0 (2.0–4.0) ^f h
- Observed Tmax ([10]; 1,200 mg multiple dose, cancer, fasted, median (95 % CI)): 3.6 (3.0–7.9) ^f h
- Observed Tmax ([10]; 1,200 mg single dose, cancer, fasted, median (95 % CI)): 3.5 (2.1–6.0) ^g h
- Observed Tmax ([10]; 1,250 mg multiple dose, cancer, fasted, median (range)): 3.0 (1.5–8.0) ^f h
- Observed Tmax ([10]; 1,250 mg multiple dose, cancer, not fasted, median (range)): 3.0 (2.6–8.0) ^f h
- Observed Tmax ([10]; 1,500 mg multiple dose, cancer, fasted, median (range)): 3.0 (0.0–12.2) ^f h
- Observed Tmax ([10]; 1,500 mg multiple dose, cancer, not fasted, median (range)): 3.4 (0.0–6.0) ^f h
- Observed Tmax ([10]; 1,600 mg multiple dose, cancer, fasted, median (95 % CI)): 5.1 (0.9–8.0) ^g h
- Observed Tmax ([10]; 1,800 mg multiple dose, cancer, fasted, median (95 % CI)): 3.9 (3.0–7.9) ^g h
- Observed Tmax ([10]; 1,800 mg single dose, cancer, fasted, median (95 % CI)): 3.9 (3.0–8.0) ^g h

SMILES: Cc1ncc2n1-c1ccc(Cl)cc1C(c1ccccc1F)=NC2 [midazolam]
- microsomal intrinsic clearance (CYP3A; human liver): 15800 mL/min
- microsomal intrinsic clearance (CYP3A; human small intestine): 213.7 mL/min
- small intestine microsomal intrinsic clearance as percent of liver (CYP3A; human): 1.35%
